Assay results: patent publication US20030054549A1, “Stem cell reinforcing material” (priority 2000, published 2003)

What was measured:
[1] = tested on: bone marrow hematopoietic stem cells; test: Example 4: mouse spleen colony method with radiation exposure and bone marrow transplant, female rats, mixture vs genistein vs 17β estradiole; format: in vivo; conditions: female ICR, 8 Gy; for spleen weight after radiation exposure per 10 g body weight: day 10 after bone marrow transplant
Protocol: They were reared with five rats in each group.
With the exception of comparative groups 8 and 9, bone marrow transplant was performed 24 hours after radiation exposure on the rats of comparative groups 10 and 11 as well as those of experimental groups 7, 8, and 9.
Body weight of all rats was determined when rearing was started, after one week, and after two weeks and before bone marrow transplant and on day 5, day 7 and day 10 after transplant.

[2] = tested on: bone marrow hematopoietic cells and reproductive stem cells
Protocol: 1) Healthy male rats of equal body weight in each group were reared as the sample (male ICR) (six weeks old). They were reared with 10 rats each in comparative groups 3, 4 and 5 as well as experimental group 4 and 5 rats in experimental group 3.
The rats of comparative groups 4 and 5 as well as experimental groups 3 and 4 were systemically exposed one time only to a dose of 8 Gy after three weeks of rearing.
Bone marrow transplant was performed on the rats of each group 24 hours after radiation exposure. In this case, the femur of a donor rat of the same species was cut out. A small piece was cut off from both ends of the femur with a clean bench. Once 1 ml RPMI medium 1640 medium containing 10% antibiotic-antimycotic was injected with a syringe from one end through the medullary cavity, it was pushed into a test tube. The marrow cell count was adjusted to 10^5/ml and 0.5 ml was injected from a caudal vein. The donor rat had been systemically exposed to 2 Gy radiation and reared for three weeks on feed of 1 wt % of the koji mold soybean fermentation and cultivation product added to ordinary food.
All of the rats were sacrificed, the spleen was excised, spleen weight and the number of spleen colonies formed were determined, and the […] were likewise excised and testicle weight was determined after determining body weight on day 7 after bone marrow transplant.
Body weight of all rats was determined before bone marrow transplant and on day 7 after transplant.

SMILES: C[C@]12CC[C@@H]3c4ccc(O)cc4CC[C@H]3[C@@H]1CC[C@@H]2O [17β estradiole]
- spleen weight after radiation exposure per 10 g body weight ([1]; 10 μg/kg body weight in feed): lower values than experimental groups 7, 8 and 9
- spleen colony formation ([1]; 10 μg/kg body weight in feed, day 10 after transplant): no augmentation whatsoever

SMILES: O=c1c(-c2ccc(O)cc2)coc2cc(O)cc(O)c12 [genistein]
- spleen weight after radiation exposure per 10 g body weight ([1]; 30 mg/kg body weight in feed, vs comparative groups 9 and 10): significantly higher
- number of spleen colonies that formed following transplant after radiation exposure ([1]; 30 mg/kg body weight in feed, day 10 after transplant, vs comparative groups 10 and 11): significantly higher
- body weight ([1]; 30 mg/kg body weight in feed, judging from day 7 after radiation exposure): tendency toward an increase

SMILES: CN(C)CCOc1ccc(/C(=C(/CCCl)c2ccccc2)c2ccccc2)cc1 [toremifen]
- spleen weight after radiation exposure per 10 g body weight ([2]; male ICR, 30 mg/kg body weight in feed, 8 Gy, day 7 after bone marrow transplant, compared to unexposed comparative group 3): somewhat lower value than the others
- testicle weight after radiation exposure per 10 g body weight ([2]; male ICR, 30 mg/kg body weight in feed, 8 Gy, day 7 after transplant, compared to unexposed comparative group 3): likewise lower
- toxicity (spleen weight and body weight lower) ([2]; rat, in vivo, 30 mg/kg): considerably stronger than isoflavone aglycone
